Reference: patent US11833144B2, “Treating autoimmune disease” (Mayo Foundation for Medical Education and Research, priority 2020, dated 2023)

Tests used:
murine B cells = test: Murine B cell proliferation (CellTrace Violet, cell number) and class switch to IgG1 in vitro; type: cell-based, mouse; conditions: for proliferation of mouse B cells (CTV dilution) / B cell proliferation, exogenous fatty acid alone / IgG1 class switch, exogenous fatty acid alone: LPS/IL-4 activated; for proliferation of mouse B cells (CTV dilution): SCD inhibitor alone; for rescue of proliferation and IgG1 class switch upon SSI-4 treatment: SSI-4 with exogenous fatty acid; for B cell proliferation, exogenous fatty acid alone / IgG1 class switch, exogenous fatty acid alone: fatty acid-BSA conjugate, no inhibitor
Description: Mouse B cells were isolated from pooled single cell suspensions of spleen and peripheral lymph nodes using CD19 Microbeads (Miltenyi) or Mouse B cell Isolation Kit (Stemcell Technologies). B cells were stimulated with LPS (10 μg/mL; Sigma-Aldrich) and recombinant IL-4 cytokine (10 ng/mL; Tonbo Bioscience) with or without SCD inhibitor SSI-4, and proliferation was measured by dilution of CellTrace Violet proliferation dye (Thermo Fisher Scientific). B cells were also stimulated with anti-IgM (10 μg/mL; Jackson ImmunoResearch), anti-CD40 (10 μg/mL; BioXcell) and IL-4 (10 ng/mL; Tonbo Bioscience), or TLR ligand CpG (2.5 μM; IDT), recombinant IL-4 and IL-5 (10 ng/mL; Tonbo Bioscience) cytokines. To test the function of monounsaturated and saturated fatty acids, B cells were activated in presence of exogenous fatty acid-BSA conjugate. Palmitoleic acid (NU-CHEK PREP, INC), palmitic acid (NU-CHEK PREP, INC), stearic acid (NU-CHEK PREP, INC) were conjugated with fatty acid free BSA (Sigma-Aldrich) as described elsewhere (Wang et al., Immunity 35:871-882 (2011)). Human B cells were activated with CpG OND2006 (2.5 μM; IDT), recombinant human cytokine IL-10 ([…]; Peprotech), IL-15 (10 ng/mL; Peprotech), IL-4 (10 ng/mL; Biolegend), IL-2 (10 unit/mL) and anti-human CD40 (1 μg/mL; BioXcell). Human B cell proliferation was measured by ^3[H]-thymidine incorporation (1 μCi/mL) (American Radiolabeled Chemicals). For analysis of surface markers, cells were stained in PBS containing 1% (w/v) bovine serum albumin on ice for 30 minutes, with anti-IgG1 (RMG1-1, Biolegend), anti-CD19 (ID3, Biolegend) anti-B220 (RA3-6B2, Biolegend), anti-CD4 (GK1.5, Biolegend), anti-CD8 (53-6.7, Biolegend), anti-CD25 (PC16, Biolegend), anti-GL7 (GL-7, Biolegend), anti-CD95 (Jo2, BD Biosciences), anti-CD138 (281-2, Biolegend), anti-IgD (11-26c.2a, Biolegend), anti-PD-1 (J43, ThermoFisher), anti-IgM (II/41, ThermoFisher). Antigen specific GC response was detected with tetramer NP-phycoerythrin conjugated with PE (Biosearch Technologies). CXCR5 was stained with biotinylated anti-CXCR5 (2G8) followed by staining with streptavidin-conjugated PE (both from BD Biosciences). Cell viability was assessed using the Fixable Dye Ghost 510 (Tonbo Bioscience) or Annexin V cell apoptosis kit with 7-AAD (ThermoFisher) following the manufacturer's protocol. Phosflow staining for phospho-S6 (S235/236) was performed using Phosflow Fix/Perm kit (BD Biosciences). Mitochondrial potential was measured by staining with 20 nM TMRM (ThermoFisher) following manufacturer's instructions. Flow cytometry was performed on the LSR II, LSR Fortessa (BD Biosciences) or Attune NxT (ThermoFisher) cytometers, and analysis was performed using FlowJo software (Tree Star).

activated human B cells = test: Seahorse OCR / ECAR in activated human B cells; type: cell-based; conditions: exogenous fatty acid, 72 hours
Description: (§1) The bioenergetic activities of the OCR and ECAR were measured using a Seahorse XFe96 Extracellular Flux Analyzed following established protocols (Agilent). Briefly, B cells were seeded at 200,000 cells/well on Cell-Tak (Corning) coated XFe96 plate with fresh XF media (Seahorse XF RPMI medium containing 10 mM glucose, 2 mM L-glutamine, and 1 mM sodium pyruvate, PH 7.4; all reagents from Agilent). OCR was measured in the presence of Oligomycin (1.5 μM; Sigma-Aldrich), FCCP (1.5 μM; Sigma-Aldrich), and Rotenone (1 μM; Sigma-Aldrich)/Antimycin A (1 μM; Sigma-Aldrich) in Mito Stress assay. For ECAR measurement, B cells were seeded in XFe96 plate with fresh Seahorse XF RPMI medium with 2 mM L-glutamine (PH 7.4), and treated with glucose (10 mM; Agilent), Oligomycin (1.5 and 2-DG (50 mM; Sigma-Aldrich) orderly in Glycolysis Stress assay.

activated murine B cells = test: Seahorse OCR / ECAR in activated murine B cells; type: cell-based, mouse; conditions: exogenous fatty acid, 48 h
Description: as §1

Cn1cnc(N)c2ncnc1-2 [3-MA, 3-methyladenine, reference compound] was tested, and the “rescue of B cell proliferation and class switch to IgG1 in the presence of SSI-4” value (murine B cells; 3-MA 1 mM, wortmannin 1 μM) was “successfully rescued”.
CNC(=O)c1cccc(NC(=O)N2CCC(Oc3ccccc3Cl)CC2)c1 [A939572, reference compound] was tested, and the “proliferation of mouse B cells (CTV dilution)” value (murine B cells) was “capable of inhibiting B cell proliferation”.
In the case of Cc1nnc(-c2ccc(N3CCC(Oc4ccccc4C(F)(F)F)CC3)nn2)s1 [MF438, reference compound], the “proliferation of mouse B cells (CTV dilution)” value (murine B cells) is reported as “capable of inhibiting B cell proliferation”.
With CCCCCCCCCCCCCCCC(=O)O [PA, palmitic acid] the “rescue of proliferation and IgG1 class switch upon SSI-4 treatment” value (murine B cells; LPS/IL-4) was “no rescue effects”, the “B cell proliferation, exogenous fatty acid alone” value (murine B cells) was “unable to promote” and the “IgG1 class switch, exogenous fatty acid alone” value (murine B cells) was “unable to promote”.
With CCCCCC/C=C\CCCCCCCC(=O)O [PO, palmitoleic acid] the “rescue of proliferation and IgG1 class switch in SCD1/2 deficient B cells” value (murine B cells; B cells from Scd1 and Scd2 deficient mice, LPS/IL-4) was “partial rescue effect”, the “rescue of proliferation and IgG1 class switch upon SSI-4 treatment” value (murine B cells; LPS/IL-4) was “substantial, but incomplete, rescue effects” and the “IgG1 class switch, exogenous fatty acid alone” value (murine B cells) was “did not improve class switch”. For the same molecule, the “respiration (OCR) in activated human B cells” value (activated human B cells) was “did enhance OCR”, the “OCR upon LPS/IL-4 stimulation in mouse B cells” value (activated murine B cells) was “did enhance OCR” and the “B cell respiration (OCR)” value (activated murine B cells; CpG/IL-4/IL-5 (PO: CpG and anti-IgM/anti-CD40) stimulation) was “did not promote respiration”.
In the case of CCCCCCCCCCCCCCCCCC(=O)O [SA, stearic acid], the “rescue of proliferation and IgG1 class switch upon SSI-4 treatment” value (murine B cells; LPS/IL-4) is reported as “no rescue effects”, the “B cell proliferation, exogenous fatty acid alone” value (murine B cells) is reported as “unable to promote” and the “IgG1 class switch, exogenous fatty acid alone” value (murine B cells) is reported as “unable to promote”.
With CCOC(=O)[C@@]1(CCCCCCOc2ccc(Cl)cc2)CO1 [etomoxir, reference compound] the “effect of OA treatment on class switch in presence of etomoxir” value (murine B cells; OA plus etomoxir 40 μM, 72 hours) was “negated the effects of OA treatment” and the “B cell class switch to IgG1” value (murine B cells; etomoxir 40 μM, LPS/IL-4, 72 hours) was “reduced B cell class switch”.
